The values below come from ChEMBL document CHEMBL1201862, “PubChem BioAssay data set” (2004).

Test systems include A498; A549; BT-549; CCRF-CEM; HCT-116; HOP-62; HOP-92; KM12; MCF7; MDA-MB-231; MDA-MB-435; MDA-N; SF-295; SK-MEL-5; SN12C; T47D; UACC-257; NCI-H23; RXF 393; SNB-75.
What all share (assay): growth of human tumour cells (NCI), 48 h

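Five concentrations, 48 hours, 96-well plates. GI50: concentration for 50% inhibition of growth.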 Calls of active or inactive are those of the source. No stated cut-off is given here; in the data, active = GI50 up to about 1.1 µM and inactive = higher. Some results are limits rather than exact numbers.

As for `CN(C)c1ccc(/C=C2\N=C(c3ccccc3)N(c3nc4c(Cl)cc(Cl)cc4s3)C2=O)cc1`, the GI50 with A498 was 27.4 µM (inactive); in the test with A549 it was 49.9 µM (inactive); with BT-549 it was 54.3 µM (inactive); in the test on CCRF-CEM, 0.731 µM (active); in the test with HCT-116 it was 35.2 µM (inactive); in the test on HOP-62 it was > 100 µM (inactive). The GI50 is 24.5 µM (inactive) in the test with HOP-92; 34.2 µM (inactive) in the test with KM12; 31.6 µM (inactive) in the test on MCF7; 29.7 µM (inactive) with MDA-MB-231; 21.2 µM (inactive) in the test on MDA-MB-435; 22.9 µM (inactive) in the test on MDA-N. Further, the GI50 was 93.8 µM (inactive) in the test with SF-295; 41.8 µM (inactive) in the test on SK-MEL-5; 44 µM (inactive) in the test with SN12C; 52.5 µM (inactive) with T47D; 47 µM (inactive) in the test with UACC-257.
Turning to `O=C(Nc1ccccc1Cl)c1cc(S(=O)(=O)Nc2n[nH]c(=O)n2-c2ccccc2)c(S)cc1Cl`, the GI50 with A498 was > 100 µM (inactive); with BT-549 it was > 100 µM (inactive); in the test with CCRF-CEM, > 100 µM (inactive); with HCT-116, > 10 µM (inactive); in the test with HOP-62, > 100 µM (inactive); with HOP-92, > 100 µM (inactive). The GI50 with KM12, in the test on MCF7, with MDA-MB-231, in the test with MDA-MB-435, in the test on MDA-N and in the test with NCI-H23 was > 100 µM (inactive) each time. In addition, the GI50 with RXF 393, in the test on SF-295, with SK-MEL-5, with SN12C, with T47D and in the test on UACC-257 was > 100 µM (inactive) throughout.
With `CC1N=C(c2ccccc2)OC1=O` (stereo unspecified), the GI50 with A498, in the test on A549, in the test with BT-549, in the test with CCRF-CEM, in the test on HCT-116 and with HOP-62 was > 100 µM (inactive) in each case. The GI50 in the test on HOP-92, with KM12, with MCF7, in the test on MDA-MB-231, in the test with MDA-MB-435 and in the test with MDA-N was > 100 µM (inactive) each time. Also, the GI50 with NCI-H23, in the test on SF-295, in the test on SK-MEL-5, in the test on SN12C, in the test on SNB-75 and in the test on T47D was > 100 µM (inactive) throughout. In addition, in the test on UACC-257, the GI50 was > 100 µM (inactive).
In the case of `CC(C)CC1c2[nH]c3ccccc3c2C[C@H]2C(=O)NC(CCC(=O)OC(C)(C)C)C(=O)N12` (stereo partly specified), the GI50 with A498 was 40.4 µM (inactive); in the test on A549, 34 µM (inactive); with BT-549, 33.5 µM (inactive); with HCT-116, 28.8 µM (inactive); in the test on HOP-62 it was 23 µM (inactive); in the test on HOP-92, 27.5 µM (inactive). Besides, the GI50 in the test with KM12 is 40.6 µM (inactive); with MCF7, 36.9 µM (inactive); with MDA-MB-231 it was 27.2 µM (inactive); with MDA-MB-435, 36 µM (inactive); in the test with MDA-N, 30.7 µM (inactive); in the test on NCI-H23, 34.6 µM (inactive). Further, the GI50 in the test on RXF 393 is 19.1 µM (inactive); in the test with SF-295, 19.4 µM (inactive); with SK-MEL-5, 25.9 µM (inactive); with SN12C, 22.8 µM (inactive); in the test on T47D, 15.8 µM (inactive); with UACC-257, 25.9 µM (inactive).
Take `O=C(Nc1ccc2[nH]c(C(=O)N3CC(CCl)c4c3cc([N+](=O)[O-])c3ccccc43)cc2c1)Nc1ccc2[nH]c(C(=O)N3CC(CCl)c4c3cc([N+](=O)[O-])c3ccccc43)cc2c1` (stereo unspecified): the GI50 in the test with A498 was > 100 µM (inactive); in the test with A549, > 100 µM (inactive); in the test with BT-549, > 100 µM (inactive); with CCRF-CEM it was 22.4 µM (inactive); in the test on HCT-116, > 100 µM (inactive); with HOP-62, > 100 µM (inactive). The GI50 with HOP-92 is > 100 µM (inactive); in the test with KM12, > 100 µM (inactive); in the test with MCF7, > 100 µM (inactive); with MDA-MB-231, 27.5 µM (inactive); in the test on MDA-MB-435, > 100 µM (inactive); in the test with MDA-N, > 100 µM (inactive). Further, the GI50 in the test with NCI-H23, with SF-295, with SK-MEL-5, in the test with SN12C, in the test on SNB-75 and with T47D was > 100 µM (inactive) each time. Also, the GI50 in the test on UACC-257 was > 100 µM (inactive).
As for `CCOC(CI)O[C@@H]1C=C[C@H](OC(C)=O)C1` (stereo partly specified), the GI50 in the test on A498 was > 100 µM (inactive); in the test on A549, > 100 µM (inactive); with BT-549 it was > 100 µM (inactive); in the test with CCRF-CEM it was > 100 µM (inactive); with HCT-116 it was > 100 µM (inactive); with HOP-62, 84.7 µM (inactive). For the same compound, the GI50 in the test with KM12 was 30.1 µM (inactive); in the test on MCF7, > 100 µM (inactive); in the test on MDA-MB-231, > 100 µM (inactive); in the test on MDA-MB-435, > 100 µM (inactive); in the test on MDA-N, > 100 µM (inactive); in the test with NCI-H23 it was > 100 µM (inactive). The GI50 in the test with RXF 393, with SF-295, in the test on SN12C, in the test with SNB-75, with T47D and in the test with UACC-257 was > 100 µM (inactive) throughout.
Take `COc1ccc2c(c1)c1c(n2CCN2CCOCC2)-c2cccc(OC)c2CC1`: the GI50 was 26.6 µM (inactive) with A498; 26.2 µM (inactive) with A549; 37.2 µM (inactive) in the test with BT-549; 18.7 µM (inactive) with CCRF-CEM; 33.7 µM (inactive) with HCT-116; 45.6 µM (inactive) in the test on HOP-62. Besides, the GI50 in the test with HOP-92 is 45.8 µM (inactive); in the test with KM12, 20.4 µM (inactive); in the test on MCF7, 23.5 µM (inactive); with MDA-MB-231, 27.6 µM (inactive); with MDA-MB-435, 44 µM (inactive); in the test on MDA-N, 33.4 µM (inactive). The GI50 with NCI-H23 is 52.8 µM (inactive); in the test on RXF 393, 24.2 µM (inactive); in the test on SF-295, 30.7 µM (inactive); in the test on SK-MEL-5, 41.6 µM (inactive); in the test with SN12C, 47.2 µM (inactive); with T47D, 59 µM (inactive). The GI50 in the test with UACC-257 is 58.5 µM (inactive).
On to `O=C(Cn1c(C(=O)/C=C/c2ccc(Cl)c(Cl)c2)nc2ccccc21)c1ccccc1`, for which the GI50 is 26.1 µM (inactive) in the test on A498; 21.7 µM (inactive) in the test on A549; 32.1 µM (inactive) with BT-549; 6.92 µM (inactive) in the test on CCRF-CEM; 15.9 µM (inactive) in the test with HCT-116; 26 µM (inactive) in the test on HOP-62. Also, the GI50 in the test on HOP-92 was 25.2 µM (inactive); in the test with KM12 it was 19.6 µM (inactive); with MCF7 it was 26.9 µM (inactive); with MDA-MB-231, 22.7 µM (inactive); in the test on MDA-MB-435, 19.1 µM (inactive); with MDA-N it was 19.9 µM (inactive). The GI50 in the test with NCI-H23 was 31.6 µM (inactive); in the test on RXF 393, 24 µM (inactive); in the test on SK-MEL-5, 16.9 µM (inactive); in the test with SN12C, 16 µM (inactive); in the test with T47D, 31 µM (inactive); in the test on UACC-257 it was 27.7 µM (inactive).
Regarding `CCc1nn(CN2CCOCC2)c(=S)n1/N=C/c1ccc(-c2ccc(Cl)cc2)o1`, the GI50 in the test on A498, in the test with A549, in the test with BT-549, in the test with HCT-116, in the test with HOP-62 and in the test with HOP-92 was > 100 µM (inactive) throughout. Further, the GI50 in the test with KM12, in the test on MCF7, in the test with MDA-MB-231, with MDA-MB-435, in the test with MDA-N and with NCI-H23 was > 100 µM (inactive) each time. The GI50 in the test on RXF 393 is > 100 µM (inactive); in the test with SF-295 it was > 100 µM (inactive); with SK-MEL-5, > 100 µM (inactive); in the test on SNB-75, 50.8 µM (inactive); in the test on T47D, > 100 µM (inactive); in the test on UACC-257 it was > 100 µM (inactive).
With `CC1=CC(C/C(C)=C/COc2ccc3ccc(=O)oc3c2)OC1=O` (stereo unspecified), the GI50 in the test on A549 is > 100 µM (inactive); with BT-549 it was 76.2 µM (inactive); in the test with CCRF-CEM, > 100 µM (inactive); in the test with HCT-116, 92.7 µM (inactive); in the test on HOP-62, > 100 µM (inactive); in the test with HOP-92, > 100 µM (inactive). For the same compound, the GI50 in the test on KM12 is > 100 µM (inactive); in the test on MCF7 it was > 100 µM (inactive); in the test with MDA-MB-231, 5.66 µM (inactive); with MDA-MB-435 it was 54.5 µM (inactive); in the test on MDA-N, 68.9 µM (inactive); with NCI-H23, 50.7 µM (inactive). Also, the GI50 was > 100 µM (inactive) in the test on RXF 393; > 100 µM (inactive) in the test on SF-295; 53.6 µM (inactive) with SK-MEL-5; > 100 µM (inactive) in the test on SN12C; > 100 µM (inactive) in the test with SNB-75; > 100 µM (inactive) in the test on T47D. In the test on UACC-257, the GI50 is 47.4 µM (inactive).
As to `CCOC(=O)Cn1c(C)nc2nn(Cc3ccccc3)cc2c1=O`, the GI50 in the test with A498, with A549, in the test on BT-549, in the test on CCRF-CEM, in the test with HCT-116 and in the test on HOP-62 was > 100 µM (inactive) throughout. The GI50 in the test on HOP-92, in the test with KM12, in the test on MCF7, in the test on MDA-MB-231, in the test on MDA-MB-435 and in the test with MDA-N was > 100 µM (inactive) throughout. Besides, the GI50 in the test on NCI-H23, with RXF 393, with SF-295, in the test with SK-MEL-5, with SN12C and with T47D was > 100 µM (inactive) throughout.
